One experiment addresses PI3Kα (Homo sapiens, UniProt P42336). Kind of experiment: PI3K kinase activity inhibition assay. The class given is biochemical. The following applies: Kinase-Glo Plus ATP detection, read-out: IC50 against PI3K. In short, it runs like this: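 PI3Kα (50 nM solution) was reacted with 30 μM ATP and 45 μM PIP2 solutions, each in HEPES pH 7.4 with MgCl2 and DTT, for 2 h at room temperature. Remaining ATP was measured by Kinase-Glo Plus luminescence, and inhibition was derived from ATP consumed. IC50 was taken from curve fitting of the serial dilutions.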

The subject of experiment [1] is human endometrial cancer cell strain AN3CA. Briefly: Cell growth inhibition test (MTT), AN3CA. The class given is cell-based. Conditions: AN3-CA, 72 h, 3 days culture, read-out: concentration exhibiting anti-cell effect (GI50). In short, it runs like this:
(§1)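 MTT read-out at 540 nm after 4 h formazan formation gives living cell count following 3-day compound exposure at 37° C, 5% CO2. Seeding: 5000 AN3CA, 1000 IGROV1, 5000 HT29 cells/well. Growth rate T/C % = 100×[(B−C)/(A−C)], with C taken before dosing; GI50 = concentration giving 50% growth.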

Experiment [2] has as its system human ovary cancer cell strain IGROV1. Kind of experiment: Cell growth inhibition test (MTT), IGROV1. The following applies: IGROV-1, 72 h, IGROV1, 3 days culture, read-out: concentration exhibiting anti-cell effect (GI50). The class given is cell-based. The essentials:
as §1

The test system of experiment [3] is human colon cancer cell strain HT29. Briefly: Cell growth inhibition test (MTT), HT29. The class given is cell-based. Conditions: HT-29, 72 h, HT29, 3 days culture, read-out: concentration exhibiting anti-cell effect (GI50). The essentials:
as §1

Experiment [4] concerns human endometrial cancer cell strain AN3CA tumor. Briefly: Anti-tumor effect assay using mouse subcutaneous transplantation model. The class given is in vivo, female nude mouse. The following applies: AN3-CA, oral, tumor weight vs negative control, read-out: Anti-tumor effect (tumor growth inhibition rate). The procedure: A tumor section was prepared from a human endometrial cancer cell strain AN3CA tumor mass formed in a female nude mouse as a subcutaneously transplanted tumor and then a xenograft model was prepared by transplanting the tumor section into female nude mouse. Tumor-bearing mice having an estimated tumor volume (long diameter×short diameter×short diameter/2) of 80 to 200 mm^3 were divided, so that there should be no significant difference in the mean estimated tumor volume and body weight as compared with the negative control group to perform a test. The test compound was orally administered at a predetermined dose for 8 consecutive days. On the following day of the final administration day, tumor-bearing mice were anesthetized and exsanguinated to death and a tumor mass was isolated to measure tumor weight (the compounds of Examples 1, 3, 6, 8, 11, 12, and 14). Furthermore, as a similar test, the test compound was orally administered for 5 consecutive days, animals were sacrificed on the final administration day, and tumor weight was measured (the compounds of Examples 60, 63, 75, 77, 79, 89, 92, 107, 108, 109, 110, and 127).
In all the tests, anti-tumor effect was calculated by the following formula. {1−(tumor weight in compound treatment group/tumor weight in negative control group)}×100

Experiment [5] has as its target T1, human mTOR (His-tagged mTOR (1362C)) (Homo sapiens, UniProt P42345).
T1 construct: the 1362 to 2549 amino acid portion on the C terminus side of human mTOR; His tag (N); made in house
Briefly: mTOR kinase activity inhibition assay. The class given is biochemical. Conditions: HTRF, read-out: IC50 against mTOR. In short, it runs like this:
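Crude His-tagged mTOR (aa 1362–2549) from stable HEK293 cells, with 8 μg/ml biotinylated peptide in 50 mM HEPES pH 7.5, 20 mM MnCl2; compound diluted in 20 μM ATP solution, reaction 3 h at room temperature. Phospho-peptide detected by HTRF (anti-phospho-S6K Thr389 cryptate/streptavidin-XL665, overnight at 4°C), 665/620 nm ratio. IC50 derived from curve fit of % inhibition.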
A general note: In TR-FRET formats the signal depends on donor and acceptor labels being close together.

The test system of experiment [6] is Akt (threonine 308) phosphorylation in AN3CA tumor. Kind of experiment: Akt phosphorylation inhibition assay in xenograft. The following applies: Mus musculus, AN3-CA, oral, 6 hr after dosing. The class given is in vivo, female nude mouse. The procedure:
(§2) A tumor section was prepared from a human endometrial cancer cell strain AN3CA tumor mass formed in a female nude mouse as subcutaneously transplanted tumor and a xenograft model was prepared by subcutaneously transplanting the tumor to a female nude mouse. The test compound at a predetermined concentration was orally administered. After a predetermined time, the anesthetized mouse was exsanguinated to death, and a tumor mass was isolated. The tumor mass was crushed using a lysis buffer containing inhibitors of proteases and dephosphorylating enzymes (Cell Signaling Technology, Inc.) and the supernatant was separated by centrifugation to obtain a tumor extract. The protein content of the tumor extract was measured using DC Protein Assay Kit (Bio-Rad Laboratories, Inc.) and phosphorylation conditions of Akt (threonine 308) and S6 (serine 235 and 236) were analyzed by a usual technique of western blotting using tumor extracts containing the same amount of protein. The primary antibody and the secondary antibody used for detecting each molecule were rabbit anti-phospho-Akt(T308) antibody and HRP-labeled goat anti-rabbit IgG antibody or mouse anti-phospho-S6(S235/236) antibody and HRP-labeled sheep anti-mouse IgG antibody.
(§3) The signal intensity detected using an image analyzer Typhoon 9400 (GE Healthcare) was quantified, and the phosphorylation inhibition rate (%) was calculated by the following formula. Phosphorylation inhibitory activity (%) of Akt and S6 after treatment with test compound=100−100×(B/A) A: Signal intensity derived from phosphorylated protein in tumor mass isolated from mouse untreated with test compound B: Signal intensity derived from phosphorylated protein in tumor mass isolated from mouse treated with test compound

Experiment [7] concerns S6 (serine 235 and 236) phosphorylation in AN3CA tumor. Briefly: S6 phosphorylation inhibition assay in xenograft. The class given is in vivo, female nude mouse. Conditions: Mus musculus, AN3-CA, oral, 6 hr after dosing. Here is the method:
as §2, §3

The structures appear in SMILES notation. “And” between values parts separate entries of the source, which are not always exact repeats. Equal entries are not always repeated. Where only a bound is given, the exact number is not on record here.

In general, IC50 refers to the point on the concentration scale where inhibition reaches its midpoint. Broadly, the inhibition is the relative decrease from the control value, in per cent. Higher therefore signals strong suppression.

PI3Kα, sequence (P42336 whole entry, species assumed): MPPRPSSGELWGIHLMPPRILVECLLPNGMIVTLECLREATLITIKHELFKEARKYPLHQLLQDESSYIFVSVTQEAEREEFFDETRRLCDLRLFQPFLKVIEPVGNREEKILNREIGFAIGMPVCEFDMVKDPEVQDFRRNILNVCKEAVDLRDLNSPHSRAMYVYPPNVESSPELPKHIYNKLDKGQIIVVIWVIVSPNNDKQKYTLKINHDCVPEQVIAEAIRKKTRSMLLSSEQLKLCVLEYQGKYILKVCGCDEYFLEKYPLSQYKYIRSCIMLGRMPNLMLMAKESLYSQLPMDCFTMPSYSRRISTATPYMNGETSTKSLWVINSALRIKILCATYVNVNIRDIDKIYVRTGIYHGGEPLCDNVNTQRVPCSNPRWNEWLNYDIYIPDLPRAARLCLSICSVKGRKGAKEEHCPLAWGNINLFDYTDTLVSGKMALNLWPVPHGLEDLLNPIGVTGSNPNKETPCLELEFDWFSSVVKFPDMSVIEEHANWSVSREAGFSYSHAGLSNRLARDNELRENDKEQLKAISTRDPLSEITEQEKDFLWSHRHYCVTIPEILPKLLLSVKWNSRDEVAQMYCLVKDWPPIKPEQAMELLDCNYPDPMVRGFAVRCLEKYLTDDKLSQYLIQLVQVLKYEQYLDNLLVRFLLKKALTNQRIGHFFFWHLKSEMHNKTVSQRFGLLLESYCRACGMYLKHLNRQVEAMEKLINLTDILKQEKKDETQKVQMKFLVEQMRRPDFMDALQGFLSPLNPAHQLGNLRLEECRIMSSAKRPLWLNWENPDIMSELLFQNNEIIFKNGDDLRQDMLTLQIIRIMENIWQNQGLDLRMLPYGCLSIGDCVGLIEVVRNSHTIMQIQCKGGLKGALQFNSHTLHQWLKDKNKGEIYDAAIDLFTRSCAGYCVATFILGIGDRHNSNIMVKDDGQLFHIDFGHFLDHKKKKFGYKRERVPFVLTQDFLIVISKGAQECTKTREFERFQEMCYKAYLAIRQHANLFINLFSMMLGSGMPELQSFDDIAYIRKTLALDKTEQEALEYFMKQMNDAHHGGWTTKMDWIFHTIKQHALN
PI3Kα, sequence (P27986 whole entry partner, species assumed): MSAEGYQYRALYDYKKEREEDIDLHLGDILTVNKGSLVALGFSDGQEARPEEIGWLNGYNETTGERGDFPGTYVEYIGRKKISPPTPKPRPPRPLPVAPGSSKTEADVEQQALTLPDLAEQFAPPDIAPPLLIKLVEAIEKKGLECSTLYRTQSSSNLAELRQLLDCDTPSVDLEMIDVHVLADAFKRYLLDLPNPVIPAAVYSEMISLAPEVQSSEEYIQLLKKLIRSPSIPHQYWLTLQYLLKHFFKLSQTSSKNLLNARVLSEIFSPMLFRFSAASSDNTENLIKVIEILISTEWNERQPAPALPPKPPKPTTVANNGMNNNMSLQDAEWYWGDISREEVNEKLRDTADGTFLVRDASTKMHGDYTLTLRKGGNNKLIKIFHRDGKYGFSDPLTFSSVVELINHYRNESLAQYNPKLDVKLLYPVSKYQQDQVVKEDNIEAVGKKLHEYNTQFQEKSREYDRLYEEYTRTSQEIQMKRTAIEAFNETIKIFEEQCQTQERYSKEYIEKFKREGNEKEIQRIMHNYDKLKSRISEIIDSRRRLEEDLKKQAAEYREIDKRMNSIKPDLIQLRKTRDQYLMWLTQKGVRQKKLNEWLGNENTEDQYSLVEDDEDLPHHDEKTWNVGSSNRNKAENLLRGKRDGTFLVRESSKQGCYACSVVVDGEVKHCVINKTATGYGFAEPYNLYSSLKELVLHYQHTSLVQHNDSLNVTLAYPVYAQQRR
T1 sequence (P42345 1362-2549): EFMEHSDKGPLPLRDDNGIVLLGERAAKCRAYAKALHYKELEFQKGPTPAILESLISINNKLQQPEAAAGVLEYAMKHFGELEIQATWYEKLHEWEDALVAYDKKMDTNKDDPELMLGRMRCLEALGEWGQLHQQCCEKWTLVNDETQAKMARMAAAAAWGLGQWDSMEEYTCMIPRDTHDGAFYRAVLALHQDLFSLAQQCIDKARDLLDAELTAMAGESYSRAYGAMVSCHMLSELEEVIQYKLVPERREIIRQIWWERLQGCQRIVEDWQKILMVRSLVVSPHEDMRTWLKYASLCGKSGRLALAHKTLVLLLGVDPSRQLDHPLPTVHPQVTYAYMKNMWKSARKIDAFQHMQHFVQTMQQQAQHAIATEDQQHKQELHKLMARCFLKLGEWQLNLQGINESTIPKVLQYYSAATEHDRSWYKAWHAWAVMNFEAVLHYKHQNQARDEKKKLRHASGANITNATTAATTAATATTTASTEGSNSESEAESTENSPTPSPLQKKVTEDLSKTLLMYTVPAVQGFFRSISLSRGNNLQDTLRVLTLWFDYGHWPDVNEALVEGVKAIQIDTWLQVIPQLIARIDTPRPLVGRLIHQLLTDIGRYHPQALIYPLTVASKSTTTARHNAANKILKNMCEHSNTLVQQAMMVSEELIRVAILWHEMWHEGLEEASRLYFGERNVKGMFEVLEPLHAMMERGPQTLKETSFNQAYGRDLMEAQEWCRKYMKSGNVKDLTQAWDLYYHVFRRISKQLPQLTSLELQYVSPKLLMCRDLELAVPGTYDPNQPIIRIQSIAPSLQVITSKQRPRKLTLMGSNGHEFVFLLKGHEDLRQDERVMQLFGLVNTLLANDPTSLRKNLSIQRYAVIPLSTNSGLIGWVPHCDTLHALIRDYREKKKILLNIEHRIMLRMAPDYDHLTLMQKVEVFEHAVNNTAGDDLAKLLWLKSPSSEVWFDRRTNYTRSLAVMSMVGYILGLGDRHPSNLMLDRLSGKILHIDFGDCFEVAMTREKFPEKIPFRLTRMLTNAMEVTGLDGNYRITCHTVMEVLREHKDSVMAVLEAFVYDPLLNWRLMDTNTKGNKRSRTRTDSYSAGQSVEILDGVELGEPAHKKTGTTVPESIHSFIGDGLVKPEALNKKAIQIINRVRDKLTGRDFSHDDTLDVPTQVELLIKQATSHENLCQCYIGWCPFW

For the molecule `C[C@@H]1CN(c2nc3c(N4CCOCC4)nc(-c4cnc(N)nc4)nc3n2CC2CC2)C[C@H](C)N1` [Example 12, 5-{9-(Cyclopropylmethyl)-8-(cis-3,5-dimethylpiperazin-1-yl)-6-morpholin-4-yl-9H-purin-2-yl}pyrimidin-2-amine], at PI3Kα, the IC50 was 0.01 to 0.02 µM and 0.02 to 0.05 µM. For the same molecule, the GI50 in experiment [1], in experiment [2] and in experiment [3] was at most 5 µM throughout. Moreover, the inhibition in vivo at 10 mg/kg/day in experiment [4] (10 mg/kg/day, 8 or 5 consecutive days depending on compound) is 61%. In addition, the inhibition in vivo at 20 mg/kg/day in experiment [4] (20 mg/kg/day, consecutive days) worked out at 71%.

Regarding `C[C@@H]1CN(c2nc3c(N4CCOCC4)nc(-c4cnc(N)nc4)nc3n2CC(F)(F)F)CCN1` [Example 59, 5-{8-[(3R)-3-Methylpiperazin-1-yl]-6-morpholin-4-yl-9-(2,2,2-trifluoroethyl)-9H-purin-2-yl}pyrimidin-2-amine], the IC50 is below 0.01 µM on PI3Kα and 0.01 to 0.03 µM in experiment [5]. Besides, the GI50 in experiment [1], in experiment [2] and in experiment [3] was at most 5 µM each time.

Consider `Cc1nc(N)ncc1-c1nc(N2CCOCC2)c2nc(N3CC[C@@H](NS(C)(=O)=O)C3)n(CC3CC3)c2n1` [Example 72, N-{(3R)-1-[2-(2-Amino-4-methylpyrimidin-5-yl)-9-(cyclopropylmethyl)-6-morpholin-4-yl-9H-purin-8-yl]pyrrolidin-3-yl}methanesulfonamide], for which the IC50 is below 0.01 µM on PI3Kα and at least 0.5 µM in experiment [5]. Besides, the GI50 in experiment [1], in experiment [2] and in experiment [3] was at most 5 µM each time.

Consider `Cc1nc(N)ncc1-c1nc(N2CCOCC2)c2nc(N3CC[C@H](NS(C)(=O)=O)C3)n(CC3CC3)c2n1` [Example 73, N-{(3S)-1-[2-(2-Amino-4-methylpyrimidin-5-yl)-9-(cyclopropylmethyl)-6-morpholin-4-yl-9H-purin-8-yl]pyrrolidin-3-yl}methanesulfonamide], for which the IC50 on PI3Kα is below 0.01 µM; in experiment [5], at least 0.5 µM. Besides, the GI50 in experiment [1], in experiment [2] and in experiment [3] was at most 5 µM throughout.

`C[C@H]1CN(c2nc3c(N4CCOCC4)nc(-c4cnc(N)nc4)nc3n2CC2CC2)CCN1` [Example 91, 5-{9-(Cyclopropylmethyl)-8-[(3S)-3-methylpiperazin-1-yl]-6-morpholin-4-yl-9H-purin-2-yl}pyrimidin-2-amine]: the 50% inhibitory concentration (IC50) was below 0.01 µM on PI3Kα and 0.01 to 0.03 µM in experiment [5]. Moreover, the GI50 in experiment [1], in experiment [2] and in experiment [3] was at most 5 µM in each case.

`C[C@@H]1CN(c2nc3c(N4CCOCC4)nc(-c4cnc(N)nc4)nc3n2CC2CC2)CCN1` [Example 94, 5-{9-(Cyclopropylmethyl)-8-[(3R)-3-methylpiperazin-1-yl]-6-morpholin-4-yl-9H-purin-2-yl}pyrimidin-2-amine]: the IC50 is below 0.01 µM on PI3Kα and 0.01 to 0.03 µM in experiment [5]. Moreover, the GI50 in experiment [1], in experiment [2] and in experiment [3] was at most 5 µM each time.

As for `C[C@@H]1CN(c2nc3c(N4CCOCC4)nc(-c4cnc(N)nc4)nc3n2CC(F)(F)F)C[C@H](C)N1C(=O)CO` [Example 120], the IC50 (on PI3Kα; in experiment [5]) was below 0.01 µM in each case. Also, the GI50 in experiment [1], in experiment [2] and in experiment [3] was at most 5 µM in each case.

For `CC(=O)N1CCN(c2nc3c(N4CCOCC4)nc(-c4cnc(N)nc4)nc3n2CC(F)(F)F)CC1(C)C` [Example 122, 5-[8-(4-Acetyl-3,3-dimethylpiperazin-1-yl)-6-morpholin-4-yl-9-(2,2,2-trifluoroethyl)-9H-purin-2-yl]pyrimidin-2-amine], the half-inhibitory concentration (IC50) (at PI3Kα; in experiment [5]) was below 0.01 µM each time. Moreover, the GI50 in experiment [1], in experiment [2] and in experiment [3] was at most 5 µM each time.

For the molecule `CC1(C)CN(c2nc3c(N4CCOCC4)nc(-c4cnc(N)nc4)nc3n2CC(F)(F)F)CCN1C(=O)CO` [Example 123], the figures for the IC50 (on PI3Kα; in experiment [5]) were 0.01 to 0.02 µM and below 0.01 µM, respectively. Also, the GI50 in experiment [1], in experiment [2] and in experiment [3] was at most 5 µM each time.

For `CC(O)C(=O)N1[C@H](C)CN(c2nc3c(N4CCOCC4)nc(-c4cnc(N)nc4)nc3n2CC(F)(F)F)C[C@@H]1C` (stereo partly drawn) [Example 124, 1-{4-[2-(2-Aminopyrimidin-5-yl)-6-morpholin-4-yl-9-(2,2,2-trifluoroethyl)-9H-purin-8-yl]-cis-2,6-dimethylpiperazin-1-yl}-1-oxopropan-2-ol], the figures for the IC50 (at PI3Kα; in experiment [5]) were 0.01 to 0.02 µM and below 0.01 µM, respectively. Also, the GI50 in experiment [1], in experiment [2] and in experiment [3] was at most 5 µM throughout.

`C[C@H]1CN(c2nc3c(N4CCOCC4)nc(-c4cnc(N)nc4)nc3n2CC(F)(F)F)CCN1C(=O)CO` [Example 125, 2-{(2S)-4-[2-(2-Aminopyrimidin-5-yl)-6-morpholin-4-yl-9-(2,2,2-trifluoroethyl)-9H-purin-8-yl]-2-methylpiperazin-1-yl}-2-oxoethanol]: the IC50 (on PI3Kα; in experiment [5]) was below 0.01 µM in each case. The GI50 in experiment [1], in experiment [2] and in experiment [3] was at most 5 µM throughout.

As for `C[C@@H]1CN(c2nc3c(N4CCOCC4)nc(-c4cnc(N)nc4)nc3n2CC(F)(F)F)CCN1C(=O)CO` [Example 126, 2-{(2R)-4-[2-(2-Aminopyrimidin-5-yl)-6-morpholin-4-yl-9-(2,2,2-trifluoroethyl)-9H-purin-8-yl]-2-methylpiperazin-1-yl}-2-oxoethanol], the IC50 (at PI3Kα; in experiment [5]) was below 0.01 µM throughout. Further, the GI50 in experiment [1], in experiment [2] and in experiment [3] was at most 5 µM each time.

On to `CC(C)Cn1c(N2CCN(C(=O)C[C@H](C)O)CC2)nc2c(N3CCOC[C@@H]3C)nc(-c3cnc(N)nc3)nc21` [Example 133, (2S)-4-(4-[2-(2-Aminopyrimidin-5-yl)-9-isobutyl-6-[(3S)-3-methylmorpholin-4-yl]-9H-purin-8-yl]piperazin-1-yl)-4-oxobutan-2-ol], for which the IC50 on PI3Kα was below 0.01 µM. Besides, the GI50 in experiment [1], in experiment [2] and in experiment [3] was at most 5 µM throughout. In addition, the inhibition at 10 mg/kg is above 60% in experiment [6] and above 90% in experiment [7].

For the origin of these results see patent US8309546B2, “Morpholinopurine derivatives” (Daiichi Sankyo Company, Limited, priority 2008, dated 2012).
